The target of test [1] is T1, Phospho-EGFR Receptor Tyr1068 (Homo sapiens, UniProt P00533, L858R/T790M).
T1 construct: female BALB/c nude mice bearing NCI-H1975 NSCLC tumors; from tissue; host or cells: NCI-H1975 subcutaneous xenograft tumours from female BALB/c nude mice
Nature of the test: Phospho-EGFR in NCI-H1975 tumors after single oral dose (western blot). The format is in vivo, female BALB/c nude mice. The procedure:
Compound 1 was administered as a single oral (PO) dose at 10, 25, or 50 mg/kg to female BALB/c nude mice with NCI-H1975 tumors. At 4h, 6h or 12h tumors were harvested and the protein expression of mutant EGFR-L858R and phospho-EGFR was measured by western blot.
A xenograft study was conducted in female BALB/c nude mice bearing NCI-H1975 NSCLC tumors. Female nude mice were inoculated subcutaneously in the right flank with 5×10^6 tumors cells in 0.1 mL of PBS. Tumor volume was measured twice weekly in two dimensions using calipers, and volume (mm^3) was calculated using the formula: V=0.5 a×b2 where a and b are the long and short diameters of the tumor in mm, respectively. […]
All agents were administered to mice bearing NCI-H1975 tumors on day 0 as a single oral (PO) dose. […] Protein concentration was quantified using a Pierce™ BCA Protein Assay Kit, samples were reduced, and equal protein amounts were then loaded onto a western blot gel for analysis. Tumors were analyzed for EGFR Receptor L858R Mutant Specific (CST, 3197) or Phospho-EGFR Receptor Tyr1068 (CST, 2234) expression. The intensity of individual bands was measured for data analysis using Image Studio software. Protein expression was quantitated in relation to the reference protein, alpha-tubulin, to control for total protein concentration. […]
(A western blot detects proteins with antibodies after separation by electrophoresis.)

Another test concerns the target T2, pY1068 EGFR (Homo sapiens, UniProt P00533, L858R).
T2 construct: NCI-H3255 (harboring EGFR heterozygous L858R mutation); host or cells: NCI-H3255
Nature of the test: Western blot NCI-H3255, Compound 1 with or without osimertinib: phospho-EGFR. Type of test: cell-based. Conditions: NCI-H3255, six hours, 0-1,500 nM, presence and absence of 1,500 nM osimertinib. An excerpt: (§1) The compound bearing solutions were formulated to achieve a 0.1% final concentration of DMSO. […] Antibodies used in western blot were purchased from the following vendors: EGFR-L858R specific antibody (CST 3197), pY1068 EGFR (CST 2234), pERK (CST 4370), ERK (CST 4695), vinculin (Millipore 05-386).

The target in the next test is T3, EGFR-L861Q (Homo sapiens, UniProt P00533, L861Q).
T3 construct: purchased Eurofins DiscoverX KINOMEscan scanMAX; host or cells: E. coli BL21-derived (T7 phage) or HEK-293
Kind of test: KINOMEscan scanMAX, EGFR-L861Q. The format is binding. Conditions: 100 nM. The procedure: Kinome-wide binding selectivity of CFT8919 was assessed via the KINOMEscan scanMAX assay at Eurofins DiscoverX (Freemont, CA, USA). Compound was tested at 100 nM against a diverse panel of 468 kinases. The size of circles was mapped onto the kinase phylogenetic tree utilizing DiscoverX TREEspot using <50% of % control as a cutoff.
For most assays, kinase-tagged T7 phage strains were grown in parallel in 24-well blocks in an E. coli host derived from the BL21 strain. E. coli were grown to log-phase and infected with T7 phage from a frozen stock (multiplicity of infection=0.4) and incubated with shaking at 32° C. until lysis (90-150 minutes). The lysates were centrifuged (6,000×g) and filtered (0.2 μm) to remove cell debris. The remaining kinases were produced in HEK-293 cells and subsequently tagged with DNA for qPCR detection. Streptavidin-coated magnetic beads were treated with biotinylated small molecule ligands for 30 minutes at room temperature to generate affinity resins for kinase assays. The liganded beads were blocked with excess biotin and washed with blocking buffer (SeaBlock (Pierce), 1% BSA, 0.05% Tween 20, 1 mM DTT) to remove unbound ligand and to reduce non-specific phage binding. […] Test compounds were prepared as 40× stocks in 100% DMSO and directly diluted into the assay. […] The kinase concentration in the eluates was measured by qPCR.

For the next test, the target named is EGFR L858R (Homo sapiens, UniProt P00533, L858R). Nature of the test: Differential scanning fluorimetry (DSF). The format is binding. As to conditions: EGFR (L858R) 10 μM, compound 100 μM, vs apo protein +DMSO TM = 45.4° C.
The test system of test [2] is intracranial NCI-H1975-luciferase expressing tumors. Nature of the test: NCI-H1975-luc intracranial tumor model (intracarotid artery injection): BLI, body weight, survival. The format is in vivo, female BALB/c nude mice. As to conditions: intracranial model with intracarotid implantation, oral dosing. The procedure: Female BALB/c nude mice were inoculated by intracarotid injection with NCI-H1975-luc cells (1×10^5 in 100 μL PBS) for tumor development. Tumor growth was monitored using imaging analysis. Tumor-bearing mice were weighed and injected intraperitoneally with luciferin at a dose of 150 mg/kg and anesthetized with a mixture gas of oxygen and isoflurane. 10 minutes post luciferin injection, mice were imaged using IVIS Lumina III machine and total bioluminescence signal (BLI, photons/s) was measured in a region of interest (ROI). BLI from ROI were quantified and used as an indicator of tumor burden. Twenty days post tumor cell inoculation mice were randomized into groups of 6 with a mean BLI of 1.08×10^6 photons/s. Compound 1 was dosed orally (PO) twice a day at 50 mg/kg and was formulated in 20% PEG400+80% (25% SBECD, “sulfobutylether-β-cyclodextrin”) in double distilled H2Om which was also used as the vehicle control. Body weight and MTV were measured on a 2× weekly schedule. Survival data was also measured and is represented as median survival time±SEM.

In the next test the test system is pERK. Nature of the test: Western blot NCI-H3255, Compound 1 with or without osimertinib: phospho-ERK. Type of test: cell-based, human. As to conditions: NCI-H3255, six hours, 0-1,500 nM, presence and absence of 1,500 nM osimertinib.
Description: as §1

The values that follow come from patent US20240158418A1 (C4 Therapeutics, Inc., priority 2021, published 2024).

One may read the ΔTm as the shift of the melting midpoint relative to a reference.

As for `O=C1CC[C@H](Nc2ccc(N3CCC(O)(CC(=O)N4CC5(C4)CN(c4ccc(-c6cc(F)c7c(c6)C(=O)N(C(C(=O)Nc6nccs6)c6ncn8c6CCC8)C7)cc4)C5)CC3)c(F)c2)C(=O)N1` (stereo partly drawn) [Compound 1, 2-(6,7-dihydro-5H-pyrrolo[1,2-c]imidazol-1-yl)-2-[6-[4-[2-[2-[1-[4-[[(3S)-2,6-dioxo-3-piperidyl]amino]-2-fluoro-phenyl]-4-hydroxy-4-piperidyl]acetyl]-2,6-diazaspiro[3.3]heptan-6-yl]phenyl]-4-fluoro-1-oxo-isoindolin-2-yl]-N-thiazol-2-yl-acetamide], the “phospho-EGFR decrease in vivo” value in test [1] (after a single oral dose, NCI-H1975 tumors) is listed as more than 95%. In test [1] (single PO dose 10, 25 or 50 mg/kg, 4, 6 and 12 hours), the “phospho-EGFR protein expression in tumors” value is reported as “phospho-EGFR inhibition”. Also, the “phospho-EGFR inhibition (western blot)” value at pY1068 EGFR is on record as “inhibited”. Further, at EGFR-L861Q, the percent binding remaining is recorded as less than 50%. Also, at EGFR L858R, the shift in melting temperature (ΔTm) at 100 µM turned out to be 5.8 °C. Further, the “efficacy on NCI-H1975-luc BLI (tumor burden)” value in test [2] is on record as “tumor regression”. Besides, in the test on pERK, the “phospho-ERK inhibition (western blot)” value was “inhibited”.
